How the values were obtained:
RR/PTCL = RR/PTCL historical benchmark, cited from earlier work
[1] = tolerability, treatment related adverse events (Example 4); format: in vivo, human
Protocol: The tolerability of the compounds of formula I, nivolumab, and a combination of the compounds of formula I and nivolumab were tested. The Phase 2 clinical dosage of 30 mg BIW of the compounds of formula I was administered.

RR/ATL = conditions: cited from earlier work; for ORR: RR/ATL historical benchmark
MC38 tumors [2] = test: model of PD-1 antibody failure or stable disease, second-line therapy; format: in vivo; conditions: second-line therapy in mice failing PD-1 Ab therapy, n=10/group, end of study
Protocol: To establish a model of PD-1 antibody failure or stable disease, 150 mice were initially treated biweekly for 3 weeks with first-line anti-PD-1 Ab (5 mg/kg, intraperitoneal administration).
Human cancer patients receiving ICI therapy often experience a transient response or stable disease, but eventually develop resistance and progress, a challenge to which major efforts are directed. […] To explore the effect of HBI-8000 plus ICI on acquired resistance, we developed a model based on the repeated observations that tumor-bearing mice treated initially (first-line) with single agent PD-1 Ab or PD-L1 Ab display […] patterns of growth: approximately 20% experience rapid progression, approximately 20% experience complete regression, and approximately 60% experience stable tumor growth (defined as 3 consecutive tumor volume measurements with no significant change) or slow progression (relative to rapid growth and progression), which somewhat approximates the clinical situation. Using the above model, we treated a large cohort of tumor-bearing mice with PD-1 Ab alone. Once they reached the criteria for stable disease or slow progression, they were randomized into 6 treatment arms as indicated in FIG. 13. We compared the effect of halting treatment (Vehicle), continuing to treat with PD-1 Ab, or continuing PD-1 Ab in combination with HBI-8000. […]

MC38 tumors [3] = test: NanoString nCounter PanCancer Immune Profiling Panel gene expression; format: in vivo, C57BL/6 mice
Protocol: Gene expression studies were carried out using excised MC38 tumors (n=20 animals/treatment) isolated from syngeneic C57BL/6 mice treated for 7, 14, or 17 days with HBI-8000 (50 mg/kg, daily), anti-PD-1 (10 mg/kg, biweekly), or the combination of HBI-8000+anti-PD-1 (50 mg/kg, daily, 10 mg/kg, biweekly). At study termination, tumor samples from the treated mice were collected and fixed in formalin for 24 h and transferred to EtOH, followed by the preparation of formalin-fixed paraffin embedded blocks. Tumor sections (5-10 μm) were prepared from the formalin-fixed paraffin-embedded blocks, and total RNA was isolated from tissue scraped from 4 to 6 slides using the protocol recommended by NanoString Technologies (Seattle, Wash.). The nCounter PanCancer Immune Profiling panel developed and provided by NanoString Technologies was initially selected for expression analyses with an additional 20 genes added as a Panel Plus Codeset. The additional genes were predicted to be regulated by HBI-8000+/−ICI treatment. The nCounter assays were performed according to the manufacturer's instructions using the nCounter FLEX system.
Gene expression data were analyzed using nSolver software provided by NanoString Technologies, Inc. Raw data were normalized to the geometric mean values of the internal synthetic positive controls and geometric means of the housekeeping genes, as recommended by the manufacturer. The NanoString Technologies' nSolver Analysis Software 4.0 generated cell type scores, pathway scores, heatmaps, and individual gene normalized data from the nCounter PanCancer Immune Profiling Panel Plus dataset. The cell type score quantifies cell populations using marker genes for given cell types; by centering the mean at 0 for each cell type, immune cell type abundance can be compared on the same scale. The same method was used to generate immune-relevant pathway scores; summarizing the data from multiple genes in a pathway into a single score allowed for comparison between treatments for pathway analysis.
Normalized gene expression data for individual genes was exported from nSolver, annotated with percent of tumor growth inhibition (% TGI), and then imported into GraphPad Prism 7.04.
To investigate the mechanism of action of HBI-8000 in combination therapy with ICIs, larger groups of mice (n=20/group) were implanted with MC38 tumors to sufficiently power the statistical analysis. A baseline no-treatment tumor-bearing group was killed 1 day before initiating treatment. Mice in each treatment arm (n=20) were killed at days 7, 14, and 17 post treatment initiation. The NanoString nCounter PanCancer Immune Profiling Panel analysis allows for clustering of immune response-related genes into “gene sets” comprising a collection of genes selected as being representative of an element of the immune response (i.e., cell type, pathway), and provides a high level view of the antitumor response, which is depicted as scatterplots in FIG. 9A. While all the scores were elevated in the PD-1 Ab plus HBI-8000 combination agent cohorts, it is noteworthy that a subset of cell type scores was augmented by either PD-1 Ab or HBI-8000 alone as early as day 7.

Nc1cc(F)ccc1NC(=O)c1ccc(CNC(=O)/C=C/c2cccnc2)cc1 [Epidaza (China)]
ORR (PMS) (RR/PTCL; value in brackets (PMS)): 35% | ORR (RR/PTCL): 28%

NIVO: fully human monoclonal antibody directed against PD-1
Anemia, TRAE ([1]; G1-2): 0 n (% of N) | Diarrhea, TRAE ([1]; G1-2): 4 (6) n (% of N) | Fatigue, TRAE ([1]; G1-2): 0 n (% of N) | Hypophospatemia, TRAE ([1]; G1-2): 0 n (% of N) | Lymphocyte decrease, TRAE ([1]; G1-2): 0 n (% of N) | Neutrophil decrease, TRAE ([1]; G1-2): 0 n (% of N) | Platelet decrease, TRAE ([1]; G1-2): 0 n (% of N) | WBC decrease, TRAE ([1]; G1-2): 0 n (% of N) | Anemia, TRAE ([1]; G3): 0 n (% of N) | Diarrhea, TRAE ([1]; G3): 1 (2) n (% of N) | Fatigue, TRAE ([1]; G3): 0 n (% of N) | Hypophospatemia, TRAE ([1]; G3): 0 n (% of N) | Lymphocyte decrease, TRAE ([1]; G3): 0 n (% of N) | Neutrophil decrease, TRAE ([1]; G3): 0 n (% of N) | Platelet decrease, TRAE ([1]; G3): 0 n (% of N) | WBC decrease, TRAE ([1]; G3): 0 n (% of N) | Anemia, TRAE ([1]; G4): 0 n (% of N) | Diarrhea, TRAE ([1]; G4): 0 n (% of N) | Fatigue, TRAE ([1]; G4): 0 n (% of N) | Hypophospatemia, TRAE ([1]; G4): 0 n (% of N) | Lymphocyte decrease, TRAE ([1]; G4): 0 n (% of N) | Neutrophil decrease, TRAE ([1]; G4): 0 n (% of N) | Platelet decrease, TRAE ([1]; G4): 0 n (% of N) | WBC decrease, TRAE ([1]; G4): 0 n (% of N) | TSH increase, TRAE ([1]; less frequent TRAEs): 5 n | amylase increase, TRAE ([1]; less frequent TRAEs): 4 n | lipase increase, TRAE ([1]; less frequent TRAEs): 6 n | rash, TRAE ([1]; less frequent TRAEs): 10 n

C#CCC(Cc1cnc2nc(N)nc(N)c2n1)c1ccc(C(=O)N[C@@H](CCC(=O)O)C(=O)O)cc1 (some centres unmarked) [Pralatrexate]
ORR (RR/PTCL): 45%

Nc1cccc2c1CN(C1CCC(=O)NC1=O)C2=O (centres unmarked) [Lenalidomide]
ORR (RR/ATL): 42% | ORR in moga patients (RR/ATL; RR/ATL patients who had received mogamulizumab): 18%

Nc1cc(F)ccc1NC(=O)c1ccc(CNC(=O)/C=C/c2cccnc2)cc1 [HBI-8000, N-(2-amino-4-fluorophenyl)-4-[[[(2E)-1-oxo-3-(3-pyridinyl)-2-propen-1-yl]amino]methyl]benzamide]
share of TRAEs associated with the agent ([1]; 63 subjects with AE data): 39% | Anemia, TRAE ([1]; G1-2): 14 (22) n (% of N) | Diarrhea, TRAE ([1]; G1-2): 0 n (% of N) | Fatigue, TRAE ([1]; G1-2): 0 n (% of N) | Hypophospatemia, TRAE ([1]; G1-2): 6 (10) n (% of N) | Lymphocyte decrease, TRAE ([1]; G1-2): 0 n (% of N) | Neutrophil decrease, TRAE ([1]; G1-2): 8 (13) n (% of N) | Platelet decrease, TRAE ([1]; G1-2): 23 (37) n (% of N) | WBC decrease, TRAE ([1]; G1-2): 11 (17) n (% of N) | Anemia, TRAE ([1]; G3): 1 (2) n (% of N) | Diarrhea, TRAE ([1]; G3): 0 n (% of N) | Fatigue, TRAE ([1]; G3): 0 n (% of N) | Hypophospatemia, TRAE ([1]; G3): 4 (6) n (% of N) | Lymphocyte decrease, TRAE ([1]; G3): 0 n (% of N) | Neutrophil decrease, TRAE ([1]; G3): 5 (8) n (% of N) | Platelet decrease, TRAE ([1]; G3): 3 (5) n (% of N) | WBC decrease, TRAE ([1]; G3): 1 (2) n (% of N) | Anemia, TRAE ([1]; G4): 0 n (% of N) | Diarrhea, TRAE ([1]; G4): 0 n (% of N) | Fatigue, TRAE ([1]; G4): 0 n (% of N) | Hypophospatemia, TRAE ([1]; G4): 0 n (% of N) | Lymphocyte decrease, TRAE ([1]; G4): 0 n (% of N) | Neutrophil decrease, TRAE ([1]; G4): 1 (2) n (% of N) | Platelet decrease, TRAE ([1]; G4): 0 n (% of N) | WBC decrease, TRAE ([1]; G4): 0 n (% of N) | complete response (tumor regression) (MC38 tumors [2]): 2 mice | partial response (MC38 tumors [2]): 3 mice | cell type scores corresponding to dendritic cells, macrophages, NK cells, cytotoxic cells, and CD45 cells (MC38 tumors [3]; as early as day 7): augmented | directed global significance score, Adaptive (MC38 tumors [3]; day 17, vs. Control): 2 | directed global significance score, Adhesion (MC38 tumors [3]; day 17, vs. Control): 2 | directed global significance score, Antigen processing (MC38 tumors [3]; day 17, vs. Control): 1.8 | directed global significance score, Apoptosis (MC38 tumors [3]; day 17, vs. Control): 1.8 | directed global significance score, B cell Functions (MC38 tumors [3]; day 17, vs. Control): 1.5 | directed global significance score, Basic Cell Function (MC38 tumors [3]; day 17, vs. Control): 1.5 | directed global significance score, CD molecules (MC38 tumors [3]; day 17, vs. Control): 1.7 | directed global significance score, Cancer progression (MC38 tumors [3]; day 17, vs. Control): 1.8 | directed global significance score, Cell cycle (MC38 tumors [3]; day 17, vs. Control): 1.5 | directed global significance score, Chemokine and Receptors (MC38 tumors [3]; day 17, vs. Control): 1.5 | directed global significance score, Class I MHC mediated antigen process (MC38 tumors [3]; day 17, vs. Control): 1.5 | directed global significance score, Complement pathway (MC38 tumors [3]; day 17, vs. Control): 0 | directed global significance score, Costimulation by the CD28 family (MC38 tumors [3]; day 17, vs. Control): 1 | directed global significance score, Cytokines and Receptors (MC38 tumors [3]; day 17, vs. Control): 1.8 | directed global significance score, Dendritic cell Functions (MC38 tumors [3]; day 17, vs. Control): 1.8 | directed global significance score, Humoral (MC38 tumors [3]; day 17, vs. Control): 1.8 | directed global significance score, Inflammation (MC38 tumors [3]; day 17, vs. Control): 1.8 | directed global significance score, Innate (MC38 tumors [3]; day 17, vs. Control): 1.8 | directed global significance score, Interferon (MC38 tumors [3]; day 17, vs. Control): 1.5 | directed global significance score, Interleukin (MC38 tumors [3]; day 17, vs. Control): 1.5 | directed global significance score, Leukocyte Function (MC38 tumors [3]; day 17, vs. Control): 1.8 | directed global significance score, MHC (MC38 tumors [3]; day 17, vs. Control): 1.8 | directed global significance score, MHC class II antigen presentation (MC38 tumors [3]; day 17, vs. Control): 1.8 | directed global significance score, Macrophage function (MC38 tumors [3]; day 17, vs. Control): 1.8 | directed global significance score, Microglial Functions (MC38 tumors [3]; day 17, vs. Control): 3 | directed global significance score, NK cell Function (MC38 tumors [3]; day 17, vs. Control): 1.5 | directed global significance score, Pathogen Receptors (MC38 tumors [3]; day 17, vs. Control): 1.3 | directed global significance score, Senescence (MC38 tumors [3]; day 17, vs. Control): 1.3 | directed global significance score, T-cell Functions (MC38 tumors [3]; day 17, vs. Control): 1.5 | directed global significance score, TLR (MC38 tumors [3]; day 17, vs. Control): 1.5 | directed global significance score, TNF superfamily (MC38 tumors [3]; day 17, vs. Control): 1.5 | directed global significance score, Transporter Function (MC38 tumors [3]; day 17, vs. Control): 1.8

O=c1[nH]cnc2c([C@@H]3N[C@H](CO)[C@@H](O)[C@H]3O)c[nH]c12 [Forodesine]
ORR (RR/PTCL): 22%

B1: Mogamulizumab: RR/ATL treatment listed as historical benchmark (antibody, chains of the INN, looked up, V domains shown)
VH: EVQLVESGGDLVQPGRSLRLSCAASGFIFSNYGMSWVRQAPGKGLEWVATISSASTYSYYPDSVKGRFTISRDNAKNSLYLQMNSLRVEDTALYYCGRHSDGNFAFGYWGQGTLVTVSS
VL: DVLMTQSPLSLPVTPGEPASISCRSSRNIVHINGDTYLEWYLQKPGQSPQLLIYKVSNRFSGVPDRFSGSGSGTDFTLKISRVEAEDVGVYYCFQGSLLPWTFGQGTKVEIK
ORR (RR/ATL): 50%

Reference: US20220110924A1, “METHODS AND COMPOSITIONS FOR GENETIC MODULATION OF TUMOR MICROENVIRONMENTS” (HUYABIO International, LLC, priority 2020, published 2022)
